{
  "source": "patent US6403788B1",
  "about": "“Non-genotoxic metalloporphyrins as synthetic catalytic scavengers of reactive oxygen species” (Eukarion, Inc., priority 2000, dated 2002)",
  "key": {"[1]": {"system": "CBA/J female mice, oxazolone-induced inflammatory ear edema", "test": "Delayed type hypersensitivity: oxazolone-induced ear edema", "type": "in vivo", "from_the_text": "CBA/J female mice (Jackson Labs, Bar Harbor, ME) 7 weeks of age were pre-sensitized with 3% oxazolone (Sigma Chemical Co., St. Louis, Mo.) in 99.9% acetone, on the abdomen. After 8 days, the mice were challenged with 1.2% oxazolone topically on one ear to induce an inflammatory edema. Either Structural Formula V, Structural Formula IV at a dose of 7 nmoles/ear each, or ethanol, i.e. vehicle control (eight mice per study group), was applied topically to the ear immediately after the oxazolone challenge. Ear edema was measured by comparing the tissue water content (the wet weight minus the dry weight) of the challenged ear to that of the control ear. The percent edema (% water in the right ear-left ear) in the vehicle control was 6.5% and 2.1% and 3.9% for Structural Formula V and Structural Formula IV, respectively at a dose of 7 nmoles/ear."}, "[2]": {"test": "Superoxide dismutase activity, xanthine-xanthine oxidase / cytochrome C", "type": "biochemical", "settings": "reciprocal of IC50; xanthine 60 μM, xanthine oxidase 0.009 units/ml, cytochrome C 27.8 μM", "protocol": "Superoxide Dismutase Activity was measured by incubating the compound with a superoxide generating system (Xanthine, 60 μM-Xanthine Oxidase, 0.009 units/ml) and a detector molecule (Cytochrome C, 27.8 μM). Upon reacting with a molecule of superoxide, Cytochrome C undergoes a spectrum-shift which can be detected as an increase in absorbance at 550 nm. In this assay procedure, the reactant concentrations were adjusted to give a reaction rate close to 0.1 AU/min. at 2-3 min. after the reaction began. Addition of compounds with Superoxide Dismutase activity reduce the rate of absorbance change. Compounds were assayed at several concentrations (typically at 0, 2, 4, and 8 μM) and the resulting rates were graphed and fitted to a linear regression formula. The linear regression formula was then solved to determine the concentration of compound required to reduce the reaction rate to 50% of the rate without compound present (IC50)."}},
  "data": [
    {"compound": "CC[NH+](CC)CCNS(=O)(=O)c1c(C)cc(C)c(C2=C3C=CC4=[N+]3[Fe-]35[n]6c2ccc6C(c2c(C)cc(C)c(S(=O)(=O)NCC[NH+](CC)CC)c2C)=C2C=CC(=[N+]23)C(c2c(C)cc(C)c(S(=O)(=O)NCC[NH+](CC)CC)c2C)=c2ccc([n]25)=C4c2c(C)cc(C)c(S(=O)(=O)NCC[NH+](CC)CC)c2C)c1C.[Cl-].[Cl-].[Cl-].[Cl-].[Cl-]", "note": "[Structural Formula V, meso-tetrakis[3-(N-(2-(N,N-diethylammonio)ethyl)aminosulfonyl)-2,4,6-trimethylphenyl]porphyrinato diaqua-iron (III) pentachloride]", "values": [
      {"measurement": "effect on edema compared to vehicle", "setting": "[1]; 7 nmoles/ear topically", "value": "effective in reducing the percentage of edema"},
      {"measurement": "percent edema (% water in the right ear-left ear)", "setting": "[1]; 7 nmoles/ear topically immediately after oxazolone challenge, vehicle control 6.5%", "value": 2.1, "unit": "%"},
      {"measurement": "Cyt C SOD 1/(IC50, μM)", "setting": "[2]", "value": 0.067, "unit": "µM⁻¹"}
    ]}
  ]
}
